# Where a SMILES comes first, the peptide text is derived from it. [ ]: non-standard residue; d: D form. 2Nal = N[C@@H](Cc1ccc2ccccc2c1)C(=O)O; AEF = NCCOc1ccc(C[C@H](N)C(=O)O)cc1; Pen = CC(C)(S)[C@H](N)C(=O)O; Aib = CC(C)(N)C(=O)O
# Molecular target: T1, Interleukin-23 receptor (Homo sapiens, UniProt Q5VWK5)
# T1 sequence (Q5VWK5 whole entry): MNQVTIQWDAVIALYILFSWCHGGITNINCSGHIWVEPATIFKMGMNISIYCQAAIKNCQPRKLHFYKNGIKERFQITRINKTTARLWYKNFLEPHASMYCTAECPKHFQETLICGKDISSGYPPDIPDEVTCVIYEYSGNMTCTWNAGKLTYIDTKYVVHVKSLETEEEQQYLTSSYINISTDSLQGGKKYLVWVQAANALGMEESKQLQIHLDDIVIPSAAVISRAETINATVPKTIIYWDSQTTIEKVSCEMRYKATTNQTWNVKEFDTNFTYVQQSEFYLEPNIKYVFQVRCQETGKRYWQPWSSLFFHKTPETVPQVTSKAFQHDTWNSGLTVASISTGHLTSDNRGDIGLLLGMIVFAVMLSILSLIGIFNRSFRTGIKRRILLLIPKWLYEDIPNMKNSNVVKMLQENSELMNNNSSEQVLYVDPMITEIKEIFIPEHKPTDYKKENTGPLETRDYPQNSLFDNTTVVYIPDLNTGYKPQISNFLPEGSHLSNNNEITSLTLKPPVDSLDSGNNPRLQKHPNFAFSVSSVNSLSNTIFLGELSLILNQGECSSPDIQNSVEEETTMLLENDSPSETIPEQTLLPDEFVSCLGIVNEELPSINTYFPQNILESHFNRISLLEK
# Assay: Inhibition of interleukin-23 receptor in human DB cells assessed as reduction in IL-23-stimulated STAT3 phosphorylation incubated for 30 mins by HTRF assay
# Assay type: cell-based
row,SMILES,IC50 [nM]
1,CC(=O)NCCCC[C@H](NC(=O)C(C)(C)NC(=O)[C@H](Cc1ccc2ccccc2c1)NC(=O)[C@H](Cc1ccc(OCCN)cc1)NC(=O)[C@@H](NC(=O)[C@H](CCC(N)=O)NC(=O)[C@H](Cc1c[nH]c2ccccc12)NC(=O)[C@@H](NC(=O)[C@H](CCC(N)=O)NC(=O)[C@@H](NC(=O)[C@@H](NC(C)=O)[C@@H](C)O)C(C)(C)S)[C@@H](C)O)C(C)(C)S)C(=O)N[C@@H](CC(N)=O)C(=O)N[C@@H](CC(N)=O)C(N)=O (Ac-T[Pen]QTWQ[Pen][AEF][2Nal][Aib]K(Ac)NN-NH2),< 10
2,CC(=O)N[C@H]1CCSC[C@@H](C(=O)N[C@H]2Cc3ccc(cc3)OCCNC(=O)C[C@@H](C(=O)NCC(N)=O)NC(=O)[C@H](CCC(N)=O)NC(=O)[C@](C)(CC(C)C)NC(=O)[C@H](Cc3ccc4ccccc4c3)NC2=O)NC(=O)[C@H](CCC(N)=O)NC(=O)[C@H](Cc2c[nH]c3ccccc23)NC(=O)[C@H]([C@@H](C)O)NC(=O)[C@H](CCC(N)=O)NC1=O,100 to 1000
3,CCCCCCCC[C@H](NC(=O)[C@H](Cc1c[nH]c2ccccc12)NC(=O)[C@H](Cc1ccc(O)cc1)NC(=O)[C@H](CS)NC(=O)[C@H](CCC(N)=O)NC(=O)[C@H](Cc1c[nH]c2ccccc12)NC(=O)[C@@H](NC(=O)[C@H](CCC(N)=O)NC(=O)[C@H](CS)NC(C)=O)[C@@H](C)O)C(=O)N[C@@H](CCC(=O)O)C(=O)N[C@@H](CC(N)=O)C(=O)NCC(N)=O,76
4,CC(=O)NCCCC[C@H](NC(=O)[C@](C)(CCCCN)NC(=O)[C@H](Cc1ccc2ccccc2c1)NC(=O)[C@H](Cc1ccc(OCCN)cc1)NC(=O)[C@@H]1CSCC[C@H](NC(C)=O)C(=O)N[C@@H](CCC(N)=O)C(=O)N[C@@H]([C@@H](C)O)C(=O)N[C@@H](Cc2c[nH]c3ccccc23)C(=O)N[C@@H](CCC(N)=O)C(=O)N1)C(=O)N[C@@H](CC(=O)NCCCCN)C(=O)NCC(N)=O,25 to 100
5,CC(=O)NCCCC[C@H](NC(=O)C(C)(C)NC(=O)[C@H](Cc1ccc2ccccc2c1)NC(=O)[C@H](Cc1ccc(OCCN)cc1)NC(=O)[C@@H](NC(=O)[C@H](CCC(N)=O)NC(=O)[C@H](Cc1c[nH]c2ccccc12)NC(=O)[C@@H](NC(=O)[C@H](CCC(N)=O)NC(=O)[C@@H](NC(=O)[C@H](Cc1ccc2ccccc2c1)NC(C)=O)C(C)(C)S)[C@@H](C)O)C(C)(C)S)C(=O)N[C@@H](CC(N)=O)C(=O)N[C@@H](CC(N)=O)C(N)=O,< 10
6,COc1ccc(C[C@H](NC(=O)[C@@H](NC(=O)[C@H](CCC(N)=O)NC(=O)[C@H](Cc2c[nH]c3ccccc23)NC(=O)[C@@H](NC(=O)[C@H](CCC(N)=O)NC(=O)[C@@H](NC(C)=O)C(C)(C)S)[C@@H](C)O)C(C)(C)S)C(=O)N[C@@H](Cc2ccc3ccccc3c2)C(=O)NC(C)(C)C(=O)N[C@@H](CCCCNC(C)=O)C(=O)N[C@@H](CC(N)=O)C(=O)N[C@@H](CCC(N)=O)C(N)=O)cc1,< 10
7,CC(=O)NCCCC[C@H](NC(=O)C(C)(C)NC(=O)[C@H](Cc1ccc2ccccc2c1)NC(=O)[C@H](Cc1ccc(OCCN)cc1)NC(=O)[C@@H](NC(=O)[C@H](CCC(N)=O)NC(=O)[C@H](Cc1c[nH]c2ccccc12)NC(=O)[C@@H](NC(=O)[C@H](CCC(N)=O)NC(=O)[C@@H](NC(=O)[C@@H](Cc1ccccc1)NC(C)=O)C(C)(C)S)[C@@H](C)O)C(C)(C)S)C(=O)N[C@@H](CC(N)=O)C(=O)N[C@@H](CC(N)=O)C(N)=O,< 10
8,CC(=O)NCCCC[C@H](NC(=O)C(C)(C)NC(=O)[C@H](Cc1ccc2ccccc2c1)NC(=O)[C@H](Cc1ccc(OCCN)cc1)NC(=O)[C@@H](NC(=O)[C@H](CCC(N)=O)NC(=O)[C@H](Cc1c[nH]c2ccccc12)NC(=O)[C@@H](NC(=O)[C@@H](NC(=O)[C@@H](NC(C)=O)C(C)(C)S)[C@@H](C)O)[C@@H](C)O)C(C)(C)S)C(=O)N[C@@H](CC(N)=O)C(=O)N[C@@H](CCC(N)=O)C(N)=O,< 10
9,CC(=O)N[C@H]1CCSC[C@@H](C(=O)N[C@@H](Cc2ccc(OCCN)cc2)C(=O)N[C@@H](Cc2c[nH]c3ccc(O)cc23)C(=O)NC(C)(C)C(=O)N[C@@H](CCC(N)=O)C(=O)N[C@@H](CC(N)=O)C(=O)NCC(N)=O)NC(=O)[C@H](CCC(N)=O)NC(=O)[C@H](Cc2c[nH]c3ccccc23)NC(=O)[C@H]([C@@H](C)O)NC(=O)[C@H](CCC(N)=O)NC1=O,10 to 25
